# Measurements taken from patent US6737383B1, “Herbicidal oxadiazolidines” (priority 1999, dated 2004).
# Assays:
# blackgrass = assay: Test B pre/postemergence blackgrass; type: in vivo, Alopecurus myosuroides
# Method in brief: (§1)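 Test chemicals in a non-phytotoxic solvent mixture with surfactant were sprayed preemergence onto planted seeds and postemergence onto plants 2 to 18 cm tall (1- to 4-leaf stage). After twelve to sixteen days in a greenhouse, injury was visually rated against untreated controls from 0 (no effect) to 10 (complete control).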
# sugar beet = assay: Test B pre/postemergence sugar beet; type: in vivo, Beta vulgaris
# Method in brief: as §1
# purple nutsedge = assay: Test B pre/postemergence purple nutsedge; type: in vivo, Cyperus rotundus
# Method in brief: as §1
# rape = assay: Test B pre/postemergence rape; type: in vivo, Brassica napus
# Method in brief: as §1
# duck salad = assay: Test B flood test duck salad; type: in vivo, Heteranthera limosa
# Method in brief: (§2)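 Flood test on plants grown to the 2-leaf stage; treated plants kept in greenhouse twelve to sixteen days, then visually rated against controls on a 0 (no effect) to 10 (complete control) scale.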
# giant foxtail = assay: Test B pre/postemergence giant foxtail; type: in vivo, Setaria faberii
# Method in brief: as §1
# rice = assay: Test B flood test rice; type: in vivo, Oryza sativa
# Method in brief: as §2
# corn = assay: Test B pre/postemergence corn; type: in vivo, Zea mays
# Method in brief: as §1
# smallflower flatsedge = assay: Test B flood test smallflower flatsedge; type: in vivo, Cyperus difformis
# Method in brief: as §2
# wheat = assay: Test B pre/postemergence wheat; type: in vivo, Triticum aestivum
# Method in brief: as §1
# bedstraw = assay: Test B pre/postemergence bedstraw; type: in vivo, Galium aparine
# Method in brief: as §1
# wild oat = assay: Test B pre/postemergence wild oat; type: in vivo, Avena fatua
# Method in brief: as §1
# surinam grass = assay: Test B pre/postemergence surinam grass; type: in vivo, Brachiaria decumbens
# Method in brief: as §1
# velvetleaf = assay: Test B pre/postemergence velvetleaf; type: in vivo, Abutilon theophrasti
# Method in brief: as §1
# crabgrass = assay: Test B pre/postemergence crabgrass; type: in vivo, Digitaria sanguinalis
# Method in brief: as §1
# bamyardgrass = assay: Test B flood test barnyardgrass; type: in vivo, Echinochloa crus-galli
# Method in brief: as §2
# [1] = Postemergence, Rate 125 g/ha, scale of 0 to 10 where 0 is no effect and 10 is complete control
# [2] = Postemergence, Rate 1000 g/ha, scale 0 to 10 (0 no effect, 10 complete control)
# [3] = Preemergence, Rate 125 g/ha, 0 is no effect, 10 is complete control
# [4] = Preemergence, Rate 250 g/ha, scale 0 to 10, 0 is no effect, 10 is complete control
# [5] = Preemergence, Rate 500 g/ha, scale 0 to 10 (0 no effect, 10 complete control)
# [6] = Rate 250 g/ha, Postemergence, scale 0 to 10, 0 is no effect, 10 is complete control
# [7] = Rate 500 g/ha, Postemergence, scale 0 to 10
# [8] = Rate 1000 g/ha, Preemergence, scale 0 to 10 (0 no effect, 10 complete control)
# [9] = Postemergence (flood test species), Rate 125 g/ha, scale of 0 to 10 where 0 is no effect and 10 is complete control
# [10] = Rate 250 g/ha, Postemergence (flood test), scale 0 to 10, 0 is no effect, 10 is complete control
# [11] = Rate 500 g/ha, listed under Postemergence (flood test species), scale 0 to 10
structure (smiles),measurement,setting,value
Cc1ccccc1-n1c(=O)on(C(=O)N(c2c(F)cccc2F)C(C)C)c1=O [Compound 176],Blackgrass plant response rating,blackgrass; [1],0
same,Blackgrass plant response rating,blackgrass; [2],7
same,Blackgrass plant response rating (0 to 10 scale),blackgrass; [3],0
same,Blackgrass plant response rating,blackgrass; [4],2
same,Blackgrass plant response rating,blackgrass; [5],3
same,"Plant response rating, Blackgrass",blackgrass; [6],0
same,Blackgrass plant response rating,blackgrass; [7],3
same,"Plant response rating, Blackgrass",blackgrass; [8],7
same,Sugarbeets plant response rating,sugar beet; [1],0
same,Sugarbeets plant response rating,sugar beet; [2],4
same,Sugarbeets plant response rating (0 to 10 scale),sugar beet; [3],0
same,Sugarbeets plant response rating,sugar beet; [4],0
same,Sugarbeets plant response rating,sugar beet; [5],2
same,"Plant response rating, Sugarbeets",sugar beet; [6],0
same,Sugarbeets plant response rating,sugar beet; [7],0
same,"Plant response rating, Sugarbeets",sugar beet; [8],6
same,Nutsedge plant response rating,purple nutsedge; [1],0
same,Nutsedge plant response rating (0 to 10 scale),purple nutsedge; [3],0
same,Nutsedge plant response rating,purple nutsedge; [4],0
same,Nutsedge plant response rating,purple nutsedge; [5],0
same,"Plant response rating, Nutsedge",purple nutsedge; [6],0
same,Nutsedge plant response rating,purple nutsedge; [7],0
same,"Plant response rating, Nutsedge",purple nutsedge; [8],10
same,Rape plant response rating,rape; [1],0
same,Rape plant response rating,rape; [2],0
same,Rape plant response rating (0 to 10 scale),rape; [3],0
same,Rape plant response rating,rape; [4],0
same,Rape plant response rating,rape; [5],0
same,"Plant response rating, Rape",rape; [6],0
same,Rape plant response rating,rape; [7],0
same,"Plant response rating, Rape",rape; [8],3
same,Ducksalad plant response rating,duck salad; [9],0
same,Ducksalad plant response rating,duck salad; [2],0
same,"Plant response rating, Ducksalad",duck salad; [10],0
same,Ducksalad plant response rating,duck salad; [11],0
same,Giant foxtail plant response rating,giant foxtail; [1],0
same,Giant foxtail plant response rating,giant foxtail; [2],7
same,Giant foxtail plant response rating (0 to 10 scale),giant foxtail; [3],6
same,Giant foxtail plant response rating,giant foxtail; [4],10
same,Giant foxtail plant response rating,giant foxtail; [5],10
same,"Plant response rating, Giant foxtail",giant foxtail; [6],0
same,Giant foxtail plant response rating,giant foxtail; [7],6
same,"Plant response rating, Giant foxtail",giant foxtail; [8],10
same,Rice plant response rating,rice; [9],0
same,Rice plant response rating,rice; [2],0
same,"Plant response rating, Rice",rice; [10],0
same,Rice plant response rating,rice; [11],0
same,Corn plant response rating,corn; [1],0
same,Corn plant response rating,corn; [2],0
same,Corn plant response rating (0 to 10 scale),corn; [3],0
same,Corn plant response rating,corn; [4],0
same,Corn plant response rating,corn; [5],0
same,"Plant response rating, Corn",corn; [6],0
same,Corn plant response rating,corn; [7],0
same,"Plant response rating, Corn",corn; [8],2
same,S. Flatsedge plant response rating,smallflower flatsedge; [9],0
same,S. Flatsedge plant response rating,smallflower flatsedge; [2],0
same,"Plant response rating, S. Flatsedge",smallflower flatsedge; [10],0
same,S. Flatsedge plant response rating,smallflower flatsedge; [11],0
same,Wheat plant response rating,wheat; [2],4
same,Wheat plant response rating (0 to 10 scale),wheat; [3],0
same,Wheat plant response rating,wheat; [4],0
same,Wheat plant response rating,wheat; [5],0
same,"Plant response rating, Wheat",wheat; [6],0
same,Wheat plant response rating,wheat; [7],2
same,"Plant response rating, Wheat",wheat; [8],4
same,Bedstraw plant response rating,bedstraw; [1],0
same,Bedstraw plant response rating,bedstraw; [2],9
same,Bedstraw plant response rating (0 to 10 scale),bedstraw; [3],0
same,Bedstraw plant response rating,bedstraw; [4],0
same,Bedstraw plant response rating,bedstraw; [5],0
same,"Plant response rating, Bedstraw",bedstraw; [6],2
same,Bedstraw plant response rating,bedstraw; [7],8
same,"Plant response rating, Bedstraw",bedstraw; [8],6
same,Wild oats plant response rating,wild oat; [2],4
same,Wild oats plant response rating (0 to 10 scale),wild oat; [3],0
same,Wild oats plant response rating,wild oat; [4],3
same,Wild oats plant response rating,wild oat; [5],5
same,"Plant response rating, Wild oats",wild oat; [6],0
same,Wild oats plant response rating,wild oat; [7],0
same,"Plant response rating, Wild oats",wild oat; [8],5
same,B. signalgrass plant response rating,surinam grass; [1],0
same,B. signalgrass plant response rating,surinam grass; [2],2
same,B. signalgrass plant response rating (0 to 10 scale),surinam grass; [3],0
same,B. signalgrass plant response rating,surinam grass; [4],0
same,B. signalgrass plant response rating,surinam grass; [5],0
same,"Plant response rating, B. signalgrass",surinam grass; [6],0
same,B. signalgrass plant response rating,"surinam grass; Rate 500 g/ha, Postemergence, scale 0 to 10, 0 no effect, 10 complete control",0
same,"Plant response rating, B. signalgrass",surinam grass; [8],3
same,Velvetleaf plant response rating,velvetleaf; [2],3
same,Velvetleaf plant response rating (0 to 10 scale),velvetleaf; [3],0
same,Velvetleaf plant response rating,velvetleaf; [4],0
same,Velvetleaf plant response rating,velvetleaf; [5],2
same,"Plant response rating, Velvetleaf",velvetleaf; [6],2
same,Velvetleaf plant response rating,velvetleaf; [7],2
same,"Plant response rating, Velvetleaf",velvetleaf; [8],5
same,Crabgrass plant response rating,crabgrass; [1],0
same,Crabgrass plant response rating,crabgrass; [2],9
same,Crabgrass plant response rating (0 to 10 scale),crabgrass; [3],8
same,Crabgrass plant response rating,crabgrass; [4],9
same,Crabgrass plant response rating,crabgrass; [5],10
same,"Plant response rating, Crabgrass",crabgrass; [6],3
same,Crabgrass plant response rating,crabgrass; [7],6
same,"Plant response rating, Crabgrass",crabgrass; [8],10
same,Barnyardgrass plant response rating,bamyardgrass; [9],0
same,Barnyardgrass plant response rating,bamyardgrass; [2],0
same,"Plant response rating, Barnyardgrass",bamyardgrass; [10],0
same,Barnyardgrass plant response rating,bamyardgrass; [11],0
